# Values joined by “and” are separate entries in the source; they are usually repeats but may differ in a detail not shown here. Equal entries are not always repeated. Inconclusive results and toxic doses are left out.
# Tested on: P388 leukemia ip, CD2F1 mice, survival T/C
# Assay: NCI In Vivo Anticancer Drug Screen. Data for tumor model P388 Leukemia (intraperitoneal) in CD2F1 (CDF1) mice
# Conditions: endpoint: median survival time, higher = longer survival
# Outline: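 Mice carrying the transplanted tumor received test compound or vehicle. Survival was recorded in each group, and the value is the treated-group measurement divided by that of the vehicle-treated control group.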
# [1] = dose: 100.0 mg/kg/injection, schedule: Q01DX001 (ip), vehicle: Klucel (hydroxypropylcellulose) (HPC)
# [2] = dose: 200.0 mg/kg/injection, schedule: Q01DX001 (ip), vehicle: Klucel (hydroxypropylcellulose) (HPC)
# [3] = dose: 400.0 mg/kg/injection, schedule: Q01DX001 (ip), vehicle: Klucel (hydroxypropylcellulose) (HPC)
# [4] = dose: 100.0 mg/kg/injection, schedule: Q04DX003 (ip), vehicle: saline with Tween-80
# [5] = dose: 50.0 mg/kg/injection, schedule: Q01DX009 (ip), vehicle: Klucel (hydroxypropylcellulose) (HPC)
# [6] = dose: 100.0 mg/kg/injection, schedule: Q01DX009 (ip), vehicle: Klucel (hydroxypropylcellulose) (HPC)
# [7] = dose: 50.0 mg/kg/injection, schedule: Q01DX009 (ip), vehicle: saline with Tween-80
# [8] = dose: 100.0 mg/kg/injection, schedule: Q01DX009 (ip), vehicle: saline with Tween-80
# [9] = dose: 50.0 mg/kg/injection, schedule: Q01DX009 (ip), vehicle: saline
# [10] = dose: 100.0 mg/kg/injection, schedule: Q01DX009 (ip), vehicle: saline
# [11] = dose: 60.0 mg/kg/injection, schedule: Q01DX005 (ip), vehicle: saline
# [12] = dose: 240.0 mg/kg/injection, schedule: Q01DX005 (ip), vehicle: saline
# [13] = dose: 6.25 mg/kg/injection, schedule: Q01DX005 (ip), vehicle: Klucel (hydroxypropylcellulose) (HPC)
# [14] = dose: 12.5 mg/kg/injection, schedule: Q01DX005 (ip), vehicle: Klucel (hydroxypropylcellulose) (HPC)
# [15] = dose: 25.0 mg/kg/injection, schedule: Q01DX005 (ip), vehicle: Klucel (hydroxypropylcellulose) (HPC)
# [16] = dose: 60.0 mg/kg/injection, schedule: Q01DX005 (ip), vehicle: saline with Tween-80
# [17] = dose: 120.0 mg/kg/injection, schedule: Q01DX005 (ip), vehicle: saline with Tween-80
# [18] = dose: 240.0 mg/kg/injection, schedule: Q01DX005 (ip), vehicle: saline with Tween-80
# [19] = dose: 0.5 mg/kg/injection, schedule: Q01DX005 (ip), vehicle: saline
# [20] = dose: 1.0 mg/kg/injection, schedule: Q01DX005 (ip), vehicle: saline
# [21] = dose: 2.0 mg/kg/injection, schedule: Q01DX005 (ip), vehicle: saline
compound,measurement,setting,value
COc1cc(CCl)c(I)c(OC)c1OC,T/C,[1],103 % of control
same,T/C,[2],107 % of control
same,T/C,[3],102 % of control
CCC(=O)O[C@H]1CC[C@H]2[C@@H]3[C@@H](C)CC4=CC(=O)CC[C@]4(C)[C@H]3CC[C@]12C,T/C,[4],90 % of control
same,T/C,"dose: 200.0 mg/kg/injection, schedule: Q04DX003 (ip), vehicle: saline with Tween-80",90 % of control
same,T/C,"dose: 400.0 mg/kg/injection, schedule: Q04DX003 (ip), vehicle: saline with Tween-80",90 % of control
CNC(=O)OCc1c(COC(=O)NC)c(-c2ccccc2)n2c1CCC2,T/C,[5],124 % of control
same,T/C,[6],124 % of control
CC(F)C(C)C(N)C(=O)O (configuration not stated),T/C,[7],86 % of control
same,T/C,[8],91 % of control
same,T/C,"dose: 200.0 mg/kg/injection, schedule: Q01DX009 (ip), vehicle: saline with Tween-80",99 % of control
CCOC(=O)C/C(C)=N\N(C)C(N)=O,T/C,[9],91 % of control
same,T/C,[10],94 % of control
COc1ccc(/C=N/NC(=O)C(=O)N/N=C/c2ccc(OC)c(S(=O)(=O)O)c2)cc1S(=O)(=O)O,T/C,[9],102 % of control
same,T/C,[10],104 % of control
same,T/C,"dose: 200.0 mg/kg/injection, schedule: Q01DX009 (ip), vehicle: saline",109 % of control
N[C@H]1c2ccsc2C(=O)[C@H]1O,T/C,[11],153 % of control
same,T/C,[12],155 % of control
COc1ccc2nc(N(C)C)cc(N(C)C)c2c1,T/C,"dose: 12.5 mg/kg/injection, schedule: Q01DX009 (ip), vehicle: Klucel (hydroxypropylcellulose) (HPC)",94 % of control
same,T/C,"dose: 25.0 mg/kg/injection, schedule: Q01DX009 (ip), vehicle: Klucel (hydroxypropylcellulose) (HPC)",94 % of control
same,T/C,[5],87 % of control
CN(C)CCCOc1ccccc1NC1=C(Cl)C(=O)C(Nc2ccccc2OCCCN(C)C)=C(Cl)C1=O,T/C,[13],108 % of control
same,T/C,[14],99 % of control
same,T/C,[15],97 % of control
C=CC(C)n1[nH]c(=O)n(-c2ccc(O)c([N+](=O)[O-])c2)c1=O (configuration not stated),T/C,[16],100 % of control
same,T/C,[17],98 % of control
same,T/C,[18],94 % of control
C[Si](C)(C)CCCn1cc(F)c(=O)n(CCC[Si](C)(C)C)c1=O,T/C,[16],104 % of control
same,T/C,[17],104 % of control
same,T/C,[18],101 % of control
COc1ccc(CCN2C=CC(C#N)C(C(C)=O)=C2)cc1OC (configuration not stated),T/C,"dose: 50.0 mg/kg/injection, schedule: Q01DX005 (ip), vehicle: Klucel (hydroxypropylcellulose) (HPC)",99 % of control
same,T/C,"dose: 100.0 mg/kg/injection, schedule: Q01DX005 (ip), vehicle: Klucel (hydroxypropylcellulose) (HPC)",94 % of control
same,T/C,"dose: 200.0 mg/kg/injection, schedule: Q01DX005 (ip), vehicle: Klucel (hydroxypropylcellulose) (HPC)",90 % of control
[N-]=[N+]=NC(=O)c1cnn(-c2ccccc2)c1N,T/C,"dose: 15.0 mg/kg/injection, schedule: Q01DX005 (ip), vehicle: saline with Tween-80",101 % of control
same,T/C,"dose: 30.0 mg/kg/injection, schedule: Q01DX005 (ip), vehicle: saline with Tween-80",97 % of control
same,T/C,[16],106 % of control and 95 % of control
O=C(O)c1cccc([N+](=O)[O-])c1C(=O)c1ccccc1,T/C,"dose: 25.0 mg/kg/injection, schedule: Q01DX009 (ip), vehicle: saline with Tween-80",100 % of control
same,T/C,[7],95 % of control
same,T/C,"dose: 50.0 mg/kg/injection, schedule: Q04DX003 (ip), vehicle: saline with Tween-80",91 % of control
same,T/C,[8],100 % of control
same,T/C,[4],95 % of control
Cc1[nH]c(C)c2ccc(=O)ccc12,T/C,"dose: 30.0 mg/kg/injection, schedule: Q01DX005 (ip), vehicle: suspension in saline",101 % of control
same,T/C,"dose: 60.0 mg/kg/injection, schedule: Q01DX005 (ip), vehicle: suspension in saline",94 % of control and 97 % of control
same,T/C,"dose: 120.0 mg/kg/injection, schedule: Q01DX005 (ip), vehicle: suspension in saline",88 % of control
same,T/C,"dose: 240.0 mg/kg/injection, schedule: Q01DX005 (ip), vehicle: suspension in saline",93 % of control
Cn1c(=O)c2nc(-c3ccccc3)cnc2n(C)c1=O,T/C,"dose: 100.0 mg/kg/injection, schedule: Q01DX001 (ip), vehicle: saline",99 % of control
same,T/C,"dose: 200.0 mg/kg/injection, schedule: Q01DX001 (ip), vehicle: saline",96 % of control
same,T/C,"dose: 400.0 mg/kg/injection, schedule: Q01DX001 (ip), vehicle: saline",111 % of control
COc1cc(NN=C(C#N)C#N)c(OC)cc1Cl,T/C,[13],102 % of control
same,T/C,[14],107 % of control
same,T/C,[15],107 % of control
CC(C)(C)c1cc(OCC2CO2)c(C(C)(C)C)cc1OCC1CO1 (configuration not stated),T/C,[5],107 % of control
same,T/C,[6],105 % of control
same,T/C,"dose: 200.0 mg/kg/injection, schedule: Q01DX009 (ip), vehicle: Klucel (hydroxypropylcellulose) (HPC)",106 % of control
same,T/C,"dose: 400.0 mg/kg/injection, schedule: Q01DX009 (ip), vehicle: Klucel (hydroxypropylcellulose) (HPC)",116 % of control
COc1ccc2c(c1)[C@@H](NC(C)=O)CCc1cc(OC)c(OC)c(OC)c1-2,T/C,"dose: 0.25 mg/kg/injection, schedule: Q01DX005 (ip), vehicle: saline",100 % of control and 108 % of control
same,T/C,[19],102 % of control and 105 % of control
same,T/C,[20],104 % of control and 108 % of control
same,T/C,[21],110 % of control and 96 % of control
same,T/C,"dose: 4.0 mg/kg/injection, schedule: Q01DX005 (ip), vehicle: saline",98 % of control and 108 % of control
CCOC(=O)N1C(C)CCCC1C (configuration not stated),T/C,[11],106 % of control
same,T/C,"dose: 120.0 mg/kg/injection, schedule: Q01DX005 (ip), vehicle: saline",105 % of control
same,T/C,[12],95 % of control
CCOC(=O)C1=C(C)NC(CO)=C(C(=O)OCC)C1c1cccc([N+](=O)[O-])c1 (configuration not stated),T/C,"dose: 50.0 mg/kg/injection, schedule: Q01DX005 (ip), vehicle: saline with Tween-80",94 % of control
same,T/C,"dose: 100.0 mg/kg/injection, schedule: Q01DX005 (ip), vehicle: saline with Tween-80",95 % of control
same,T/C,"dose: 200.0 mg/kg/injection, schedule: Q01DX005 (ip), vehicle: saline with Tween-80",92 % of control
CN1C(=O)/C(=C2\SC(=O)N(Cc3nc4ccccc4[nH]3)C2=O)c2cc(Br)ccc21,T/C,[1],98 % of control
same,T/C,[2],95 % of control
same,T/C,[3],88 % of control
CCC12C=CCN3CC[C@@]4(c5cc([C@@]6(C(=O)OC)CC7CN(CCc8c6[nH]c6ccccc86)C[C@](O)(CC)C7)c(OC)cc5N(C)[C@H]4[C@]4(OCOC4=O)[C@@H]1O)C32 (some centres not stated),T/C,[19],102 % of control
same,T/C,[20],91 % of control
same,T/C,[21],92 % of control
